Test results: the supplement of paper PMC11962398

Tests used:
BI-2493 [1] = compound: T1, C[C@H]1CNCCN1c1nccc(-c2noc3c2CCC[C@@]32CCCc3sc(N)c(C#N)c32)n1 [BI-2493]; assay: 1 - AUC of viability dose-response curve (sensitivity) (fraction); higher = more sensitive; conditions: 5 days
Experimental: (§1)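 PRISM pooled barcoded cancer cell line viability screen (Broad Institute) with BI-2493 at 8 doses in threefold dilutions from 0.00457 to 10 µmol/L, 5-day treatment; curves fitted per cell line. IC50 is undefined (placeholder) for resistant lines. AUC is capped at 1, and sensitivity is reported as 1 − AUC.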

BI-2493 [2] = compound: T1, BI-2493; conditions: 5 days
Experimental: as §1

Test System	1 - AUC of viability dose-response curve (BI-2493 [1])	IC50 of cell viability (BI-2493 [2])
K029AX_SKIN	0.058	7.21 µM
K562_HAEMATOPOIETIC_AND_LYMPHOID_TISSUE	0.0609	7.18 µM
KALS1_CENTRAL_NERVOUS_SYSTEM	0.0195	9.22 µM
KARPAS620_HAEMATOPOIETIC_AND_LYMPHOID_TISSUE	0.326	0.866 µM
KARPAS1718_HAEMATOPOIETIC_AND_LYMPHOID_TISSUE	0.0894	4.87 µM
KATOIII_STOMACH	0.183	4.3 µM
KCL22_HAEMATOPOIETIC_AND_LYMPHOID_TISSUE	0.193	6.3 µM
KD_SOFT_TISSUE	0.114	3.6 µM
KE37_HAEMATOPOIETIC_AND_LYMPHOID_TISSUE	0.0832	6.5 µM
KE39_STOMACH	0.351	1.55 µM
KE97_STOMACH	0.00627	> 10 µM
KELLY_AUTONOMIC_GANGLIA	0.101	4.09 µM
KHM1B_HAEMATOPOIETIC_AND_LYMPHOID_TISSUE	0.106	3.77 µM
KKU055_BILIARY_TRACT	0.156	8.47 µM
KKU100_BILIARY_TRACT	0.182	2.61 µM
KKU213_BILIARY_TRACT	0.12	4.97 µM
KLE_ENDOMETRIUM	0.0854	4.68 µM
KMCH1_BILIARY_TRACT	0.013	9.41 µM
KMH2_HAEMATOPOIETIC_AND_LYMPHOID_TISSUE	0.00616	9.96 µM
KMRC1_KIDNEY	0.0333	8.1 µM
KMRC3_KIDNEY	0.0597	7 µM
KMRC20_KIDNEY	0.185	4.73 µM
KMS11_HAEMATOPOIETIC_AND_LYMPHOID_TISSUE	0.272	3.13 µM

Test System	1 - AUC of viability dose-response curve (BI-2493 [1])	IC50 of cell viability (BI-2493 [2])
KMS12BM_HAEMATOPOIETIC_AND_LYMPHOID_TISSUE	0.108	3.71 µM
KMS18_HAEMATOPOIETIC_AND_LYMPHOID_TISSUE	0.13	5.38 µM
KMS21BM_HAEMATOPOIETIC_AND_LYMPHOID_TISSUE	0.0119	9.51 µM
KMS27_HAEMATOPOIETIC_AND_LYMPHOID_TISSUE	0.028	9 µM
KMS28BM_HAEMATOPOIETIC_AND_LYMPHOID_TISSUE	0.00817	9.91 µM
KNS42_CENTRAL_NERVOUS_SYSTEM	0.0979	6.04 µM
KNS60_CENTRAL_NERVOUS_SYSTEM	0.0228	9.53 µM
KNS62_LUNG	0.271	1.79 µM
KNS81_CENTRAL_NERVOUS_SYSTEM	0.0832	6.64 µM
KON_UPPER_AERODIGESTIVE_TRACT	0.189	3.51 µM
KOSC2CL343_UPPER_AERODIGESTIVE_TRACT	0.0719	5.69 µM
KP3_PANCREAS	0.133	6.52 µM
KP4_PANCREAS	0.189	4.92 µM
KPNYN_AUTONOMIC_GANGLIA	0.144	> 10 µM
KS1_CENTRAL_NERVOUS_SYSTEM	0.0533	7.63 µM
KU1919_URINARY_TRACT	0.0267	9.28 µM
KURAMOCHI_OVARY	0.129	> 10 µM
KYM1_SOFT_TISSUE	0.117	3.79 µM
KYO1_HAEMATOPOIETIC_AND_LYMPHOID_TISSUE	0.00435	9.93 µM
KYSE70_OESOPHAGUS	0.163	5.15 µM
KYSE140_OESOPHAGUS	0.0648	> 10 µM
KYSE150_OESOPHAGUS	0.131	3.68 µM
KYSE180_OESOPHAGUS	0.0499	7.63 µM

Test System	1 - AUC of viability dose-response curve (BI-2493 [1])	IC50 of cell viability (BI-2493 [2])
KYSE270_OESOPHAGUS	0.113	5.56 µM
KYSE410_OESOPHAGUS	0.15	3.85 µM
KYSE510_OESOPHAGUS	0.22	5.11 µM
KYSE520_OESOPHAGUS	0.136	4.02 µM
L363_HAEMATOPOIETIC_AND_LYMPHOID_TISSUE	0.041	7.78 µM
LAMA84_HAEMATOPOIETIC_AND_LYMPHOID_TISSUE	0.34	0.76 µM
LC1SQSF_LUNG	0.255	> 10 µM
LCLC103H_LUNG	0.0229	8.64 µM
LI7_LIVER	0.213	1.52 µM
LMSU_STOMACH	0.103	5.54 µM
LN18_CENTRAL_NERVOUS_SYSTEM	0.0792	6.48 µM
LN229_CENTRAL_NERVOUS_SYSTEM	0.0706	8.48 µM
LN382_CENTRAL_NERVOUS_SYSTEM	0.0249	8.95 µM
LN464_CENTRAL_NERVOUS_SYSTEM	0.0968	4.83 µM
LNCAPCLONEFGC_PROSTATE	0.152	3.64 µM
LNZ308_CENTRAL_NERVOUS_SYSTEM	0.142	7.52 µM
LOUNH91_LUNG	0.189	> 10 µM
LOVO_LARGE_INTESTINE	0.246	1.17 µM
LOXIMVI_SKIN	0.0241	8.63 µM
LPS141_SOFT_TISSUE	0.0281	> 10 µM
LS180_LARGE_INTESTINE	0.244	1.08 µM
LS513_LARGE_INTESTINE	0.494	0.175 µM
LS1034_LARGE_INTESTINE	0.337	0.575 µM

Test System	1 - AUC of viability dose-response curve (BI-2493 [1])	IC50 of cell viability (BI-2493 [2])
LS_AUTONOMIC_GANGLIA	0.125	3.67 µM
LU99_LUNG	0.0228	8.77 µM
LUDLU1_LUNG	0.143	4.54 µM
LXF289_LUNG	0.103	8.04 µM
M059K_CENTRAL_NERVOUS_SYSTEM	0.00953	9.49 µM
MALME3M_SKIN	0.0805	6.19 µM
MB1_THYROID	0.165	5.5 µM
MC116_HAEMATOPOIETIC_AND_LYMPHOID_TISSUE	0.0718	5.28 µM
MCC26_SKIN	0.0203	> 10 µM
MCC142_SKIN	0.0347	9.48 µM
MCF7_BREAST	0.0329	8.66 µM
MDAMB175VII_BREAST	0.0449	8.51 µM
MDAMB231_BREAST	0.0666	7.4 µM
MDAMB361_BREAST	0.14	> 10 µM
MDAMB435S_SKIN	0.0956	4.3 µM
MDAMB436_BREAST	0.0282	> 10 µM
MDAMB453_BREAST	0.115	5.47 µM
MDAPCA2B_PROSTATE	0.118	> 10 µM
MDST8_LARGE_INTESTINE	0.00776	9.82 µM
MEG01_HAEMATOPOIETIC_AND_LYMPHOID_TISSUE	0.0154	9.19 µM
MEL285_UVEA	0.145	6.23 µM
MEL290_UVEA	0.105	> 10 µM
